Experimental data: ChEMBL document CHEMBL3044672, “N9- and N7-(Chloromethyl Phenymethyl)Chloropurine Derivatives from , '-Dichloroxylenes: Synthesis and Anticancer Activity” (2005)

Columns and labels:
Format in all cases: functional
A498 = experiment: Cytotoxicity against Homo sapiens (human) A498 cells after 48 hr by sulforhodamine B assay; conditions: A498, 48 h
SK-MEL-5 = experiment: Cytotoxicity against Homo sapiens (human) SK-MEL-5 cells after 48 hr by sulforhodamine B assay; conditions: SK-MEL-5, 48 h
SF-268 = experiment: Cytotoxicity against Homo sapiens (human) SF268 cells assessed as cell growth at 10^-4 M after 48 hr by […] assay; conditions: SF-268, 48 h, read-out: Activity
786-0 = experiment: Cytotoxicity against Homo sapiens (human) 786-0 cells after 48 hr by sulforhodamine B assay; conditions: 786-0, 48 h
NCI-H322M = experiment: Cytotoxicity against Homo sapiens (human) NCI-H322M cells after 48 hr by sulforhodamine B assay
CAKI-1 = experiment: Cytotoxicity against Homo sapiens (human) Caki1 cells after 48 hr by sulforhodamine B assay; conditions: CAKI-1, 48 h
U-251 = experiment: Cytotoxicity against Homo sapiens (human) U251 cells after 48 hr by sulforhodamine B assay; conditions: U-251, 48 h
HOP-92 = experiment: Cytotoxicity against Homo sapiens (human) HOP92 cells after 48 hr by sulforhodamine B assay; conditions: HOP-92, 48 h, read-out: LC50 (the source's name)
NCI-H226 = experiment: Cytotoxicity against Homo sapiens (human) NCI-H226 cells after 48 hr by sulforhodamine B assay; conditions: NCI-H226, 48 h
MCF7 = experiment: Cytotoxicity against Homo sapiens (human) MCF7 cells after 48 hr by sulforhodamine B assay; conditions: MCF7, 48 h
NCI-H460 = experiment: Cytotoxicity against Homo sapiens (human) NCI-H460 cells after 48 hr by sulforhodamine B assay; conditions: NCI-H460, 48 h
OVCAR-5 = experiment: Cytotoxicity against Homo sapiens (human) OVCAR5 cells after 48 hr by sulforhodamine B assay; conditions: OVCAR-5, 48 h
M14 = experiment: Cytotoxicity against Homo sapiens (human) M14 cells after 48 hr by sulforhodamine B assay; conditions: M14, 48 h
PC-3 = experiment: Cytotoxicity against Homo sapiens (human) PC3 cells after 48 hr by sulforhodamine B assay; conditions: PC-3, 48 h
SW-620 = experiment: Cytotoxicity against Homo sapiens (human) SW620 cells after 48 hr by sulforhodamine B assay; conditions: SW-620, 48 h
SK-MEL-2 = experiment: Cytotoxicity against Homo sapiens (human) SK-MEL-2 cells after 48 hr by sulforhodamine B assay; conditions: SK-MEL-2, 48 h
SK-MEL-28 = experiment: Cytotoxicity against Homo sapiens (human) SK-MEL-28 cells after 48 hr by sulforhodamine B assay; conditions: SK-MEL-28, 48 h
OVCAR-3 = experiment: Cytotoxicity against Homo sapiens (human) OVCAR3 cells after 48 hr by sulforhodamine B assay; conditions: OVCAR-3, 48 h
SN12C = experiment: Cytotoxicity against Homo sapiens (human) SN12C cells after 48 hr by sulforhodamine B assay
SF-295 = experiment: Cytotoxicity against Homo sapiens (human) SF295 cells after 48 hr by sulforhodamine B assay; conditions: SF-295, 48 h
BT-549 = experiment: Cytotoxicity against Homo sapiens (human) BT549 cells after 48 hr by sulforhodamine B assay; conditions: BT-549, 48 h
EKVX = experiment: Cytotoxicity against Homo sapiens (human) EKVX cells after 48 hr by sulforhodamine B assay
UO-31 = experiment: Cytotoxicity against Homo sapiens (human) UO31 cells after 48 hr by sulforhodamine B assay; conditions: UO-31, 48 h
IGROV-1 = experiment: Cytotoxicity against Homo sapiens (human) IGROV1 cells after 48 hr by sulforhodamine B assay; conditions: IGROV-1, 48 h
ACHN = experiment: Cytotoxicity against Homo sapiens (human) ACHN cells after 48 hr by sulforhodamine B assay
SF-539 = experiment: Cytotoxicity against Homo sapiens (human) SF539 cells after 48 hr by sulforhodamine B assay; conditions: SF-539, 48 h
SNB-19 = experiment: Cytotoxicity against Homo sapiens (human) SNB19 cells after 48 hr by sulforhodamine B assay; conditions: SNB-19, 48 h
T47D = experiment: Cytotoxicity against Homo sapiens (human) T47D cells after 48 hr by sulforhodamine B assay
HT-29 = experiment: Cytotoxicity against Homo sapiens (human) HT-29 cells after 48 hr by sulforhodamine B assay; conditions: HT-29, 48 h
MDA-MB-435 = experiment: Cytotoxicity against Homo sapiens (human) MDA-MB-435 cells after 48 hr by sulforhodamine B assay; conditions: MDA-MB-435, 48 h
OVCAR-8 = experiment: Cytotoxicity against Homo sapiens (human) OVCAR8 cells after 48 hr by sulforhodamine B assay; conditions: OVCAR-8, 48 h
DU-145 = experiment: Cytotoxicity against Homo sapiens (human) DU145 cells after 48 hr by sulforhodamine B assay; conditions: DU-145, 48 h
[1] = read-out: LC50 (the source's name)

## ClCc1cccc(Cn2cnc3ncnc(Cl)c32)c1
A498
  GI50: 18.2 µM
  LC50 (lethal concentration, 50% cell kill): 6.6 µM
  TGI: 36.3 µM
SK-MEL-5
  GI50: 4.67 µM
  LC50: 45.7 µM
  TGI: 18.2 µM
SF-268
  growth at 100 µM: 0%
786-0
  GI50: 2.04 µM
  LC50: 70.8 µM
  TGI: 4.07 µM
NCI-H322M
  GI50: 1.99 µM
  TGI: 3.46 µM
NCI-H322M; [1]
  CC50: 8.54 µM
CAKI-1
  GI50: 2.13 µM
  TGI: 4.07 µM
CAKI-1; [1]
  CC50: > 100 µM
U-251
  GI50: 1.94 µM
  LC50 (concentration killing 50% of cells): > 100 µM
  TGI: 3.98 µM
HOP-92
  CC50: 52.5 µM
NCI-H226
  GI50: 3.16 µM
  TGI: 8.7 µM
NCI-H226; [1]
  CC50: 9.33 µM
MCF7
  GI50: 1.58 µM
  LC50 (concentration killing 50% of cells): 39 µM
  TGI: 3.98 µM
NCI-H460
  GI50: 2.08 µM
  TGI: 4.46 µM
NCI-H460; [1]
  CC50: 91.2 µM
OVCAR-5
  GI50: 6.76 µM
  TGI: 19.9 µM
OVCAR-5; [1]
  CC50: > 100 µM
M14
  GI50: 3.09 µM
  LC50: 67.6 µM
  TGI: 14.5 µM
PC-3
  GI50: 2.13 µM
  LC50 (concentration causing 50% cell kill): 63.1 µM
  TGI: 5.37 µM
SW-620
  GI50: 15.1 µM
  TGI: 32.4 µM
SW-620; [1]
  CC50: 7.41 µM
SK-MEL-2
  GI50: 5.75 µM
  LC50 (concentration killing 50% of cells): 6.76 µM
  TGI: 22.9 µM
SK-MEL-28
  GI50: 1.81 µM
  LC50 (concentration killing 50% of cells): 42.6 µM
  TGI: 3.54 µM
OVCAR-3
  GI50: 1.77 µM
  LC50: 43.6 µM
  TGI: 3.23 µM
SN12C
  GI50: 7.07 µM
  LC50 (50% lethal concentration): 6.16 µM
  TGI: 20.4 µM
SF-295
  GI50: 6.3 µM
  TGI: 19.1 µM
SF-295; [1]
  CC50: 64.6 µM
BT-549
  GI50: 13.2 µM
  LC50 (50% lethal concentration): 63.1 µM
  TGI: 28.8 µM
EKVX
  GI50: 13.8 µM
  TGI: 29.5 µM
EKVX; [1]
  CC50: 64.6 µM
UO-31
  GI50: 1.54 µM
  LC50 (concentration causing 50% net cell kill): 26.9 µM
  TGI: 3.09 µM
IGROV-1
  GI50: 3.38 µM
  LC50: 5.88 µM
  TGI: 13.8 µM
ACHN
  GI50: 1.86 µM
  TGI: 3.54 µM
ACHN; [1]
  CC50: 7.76 µM
SF-539
  GI50: 19.9 µM
  TGI: 36.3 µM
SNB-19
  LC50: 6.76 µM
T47D
  GI50: 0.21 µM
  LC50: 2.88 µM
  TGI: 0.5 µM
HT-29
  GI50: 2.88 µM
  TGI: > 100 µM
HT-29; [1]
  CC50: 6.02 µM
MDA-MB-435
  GI50: 3.46 µM
  LC50: 39.8 µM
  TGI: 12.9 µM
OVCAR-8
  GI50: 3.09 µM
  LC50 (concentration killing 50% of cells): 60.2 µM
  TGI: 14.8 µM
DU-145
  GI50: 15.1 µM
  TGI: 30.9 µM
